From paper PMC6271218, “Pharmacokinetics, Tissue Distribution and Excretion of Verticinone from F. hupehensis in Rats” (Molecules, 2014)
Read-outs that look alike come from different tables or passages of the source.

Tests used:
[1] = Tissue distribution study after oral administration; type: in vivo, rats; conditions: for rank order of AUC values for individual tissues: i.g. 2 mg/kg
Protocol: A single 2 mg/kg oral dose of verticinone was administrated to thirty rats (15 male and 15 female). Rats were sacrificed and tissues (heart, liver, spleen, lung, kidney, brain, stomach, intestine, skin, muscle, fat and gonads) were promptly removed at 0.25, 0.58 and 6 h (n = 10, with 5 male and 5 female) after dosing and washed with saline. Each tissue sample (0.2 g) was homogenized in 5 volumes (v/w) of distilled water. Tissue homogenates were stored at −20 °C until analysis. Verticinone was extracted from tissue homogenate based on the method described for plasma with slight modifications. The evaporated residue was reconstituted in 200 μL methanol, vortexed, followed by centrifugation at 15,000 rpm twice. An aliquot of 10 μL was injected into the LC-MS system for analysis.
(§1) The quantification of verticinone was performed by a LC-MS method based on the previously reported method with slight modifications. The liquid chromatography system consisted of a model 2010 chromatograph (Shimadzu, Kyoto, Japan) equipped with a Shim-Pack VP-ODS C18 column (150 mm × 2.0 mm, 5 μm). A Shimadzu 2010 mass spectrometer (Q-array-Octapole-Quadrupole mass analyzer) equipped with an electrospray ionization interface was used for MS detection. The mobile phase consisted of (A) distilled water and (B) methanol, and the flow rate was 0.2 mL/min. Chromatography separation was achieved using a gradient elution program, as follows: 0.03→6.0 min, B% 15→85; 6.0→7.0 min, B% 85→85; 7.0→8.0 min, B% 85→15; 8.0–12.0 min, B% 15→15. The column and autosampler tray temperature were kept constant at 35 °C and 20 °C, respectively. For the determination of verticinone, the positive mode was selected, along with the conditions as follows.
CDL voltage […], probe voltage 4.5 kV, CDL temperature 250 °C, block temperature 200 °C, gas flow 1.5 L/min. Hupehenine was used as the internal standard (IS). Both verticinone and IS were detected using selected ion monitoring (SIM) at m/z 430.25 for verticinone and m/z 416.30 for hupehenine (IS), with a dwell time of 200 ms. […]

[2] = Plasma protein binding in vitro by ultrafiltration, rat plasma; type: in vitro ADME, rats
Protocol: (§2) The ability of verticinone to bind to plasma protein was determined by the ultrafiltration method. A Centrifree Micropartition device (Millipore, Beverly, MA, USA) was used to separate unbound and bound verticinone. Verticinone of different concentrations were added into blank rat and human plasma to give final concentrations at 5, 30 and 100 ng/mL. The spiked plasma was incubated for 30 min at 37 °C and an aliquot (100 μL) was analyzed by previously described methods to determine the total concentration of verticinone. The ultrafiltrate was obtained by centrifuging at 14,000 rpm for 10 min. The concentration of unbound verticinone in filtrate was similarly determined by the previously described methods. The percentage of free fraction (p) of verticinone was calculated as follow: p = (concentration of verticinone in ultrafiltrate/concentration of verticinone in original spiked plasma sample) × 100%.

[3] = Metabolic rate in rat liver microsomes; type: in vitro ADME
[4] = Plasma protein binding in vitro by ultrafiltration, human plasma; type: in vitro ADME, humans
Protocol: as §2

[5] = Excretion study (urine, bile, feces) after oral dose; type: in vivo, SD rats; conditions: for dose excreted: SD, rat, faeces, oral, read-out: recovery from feces; for dose excreted / cumulative excreted fraction in bile (% of administered dose) / cumulative excreted fraction in feces (% of administered dose) / unchanged verticinone excreted from urine and feces / cumulative excreted fraction in urine (% of administered dose): i.g. 2 mg/kg; for dose excreted as unchanged parent compound: 2 mg/kg oral dose; for cumulative excreted fraction in bile (% of administered dose): bile 24 h; for cumulative excreted fraction in feces (% of administered dose): feces 36 h; for cumulative excreted fraction in urine (% of administered dose): unchanged verticinone
Protocol: Ten rats were housed separately in metabolic cages and received a single oral dose of 2 mg/kg verticinone. Urine was collected at 0, 4, 8, 12, and 24 h for female rats and at 0, 4, 8, 12, 24, 36 h for male rats. Feces were collected at 0, 12, 24, and 36 h for female rats and at 0, 8, 12, 24, 36 h for male rats. The volume of urine samples was measured before storage at −20 °C. Feces were weighted and homogenized in 5 volumes (v/w) of 50% methanol/50% water and stored at −20 °C until analysis. In addition, ten rats were anesthetized with ether and then the bile ducts were cannulated with polyethylene tube. The rats also received a single oral dose of 2 mg/kg verticinone. Bile was collected at 0, 2, 4, 6, 8, 12, and 24 h after dosing and stored at −20 °C until analysis. Verticinone was extracted from urine, feces and bile samples based on the method described for tissue samples.
as §1
CDL voltage […], probe voltage 4.5 kV, CDL temperature 250 °C, block temperature 200 °C, gas flow 1.5 L/min. Hupehenine was used as the internal standard (IS). Both verticinone and IS were detected using selected ion monitoring (SIM) at m/z 430.25 for verticinone and m/z 416.30 for hupehenine (IS), with a dwell time of 200 ms. Blank plasma, tissue homogenate, urine, feces homogenate and bile were used to prepare the corresponding calibration curves to avoid different matrix effects.

C[C@H]1CC[C@@H]2N(C1)C[C@H]1[C@@H]3C[C@H]4[C@@H](CC(=O)[C@H]5C[C@@H](O)CC[C@@]54C)[C@@H]3CC[C@@H]1[C@]2(C)O [verticinone, Verticinone]
rank order of AUC values for individual tissues ([1]; female rats): intestine > stomach > liver > kidney > spleen > lung > gonad > heart > muscle > skin > fat > brain
rank order of AUC values for individual tissues ([1]; male rats): intestine > stomach > liver > kidney > spleen > lung > heart > gonad > muscle > skin > fat > brain
concentration found in the brain ([1]; oral 2 mg/kg, rats, 15 min, 35 min and 6 h): very little was found in the brain
fraction unbound at 30 min, 5 ng/mL ([2]; rat plasma, 5 ng/mL, ultrafiltration, n = 4, read-out: Protein binding rates (%) (converted)): 0.087
fraction unbound at 30 min, 30 ng/mL ([2]; rat plasma, 30 ng/mL, ultrafiltration, n = 4, read-out: Protein binding rates (%)): 0.09
fraction unbound at 30 min, 100 ng/mL ([2]; rat plasma, 100 ng/mL, ultrafiltration, n = 4, read-out: Protein binding rates (%) (converted)): 0.102
fraction unbound at 30 min ([2]; rat, plasma, rats, concentration range 5~100 ng/mL): 0.087 to 0.102
metabolic rate in rat liver microsomes ([3]; female rats): 3.76 × 10^−3 nmol/min/mg protein
metabolic rate in rat liver microsomes, females faster than males ([3]; females vs males): about 1.7 times
metabolic rate in rat liver microsomes ([3]; male rats): 2.18 × 10^−3 nmol/min/mg protein
fraction unbound at 30 min, 5 ng/mL ([4]; human plasma, 5 ng/mL, ultrafiltration, n = 4, read-out: Protein binding rates (%) (converted)): 0.074
fraction unbound at 30 min, 30 ng/mL ([4]; human plasma, 30 ng/mL, ultrafiltration, n = 4, read-out: Protein binding rates (%) (converted)): 0.105
fraction unbound at 30 min, 100 ng/mL ([4]; human plasma, 100 ng/mL, ultrafiltration, n = 4, read-out: Protein binding rates (%) (converted)): 0.054
fraction unbound at 30 min ([4]; human, plasma, humans, concentration range 5~100 ng/mL): 0.054 to 0.105
dose excreted ([5]; female rats): < 1%
dose excreted ([5]; male rats): < 1%
dose excreted as unchanged parent compound ([5]; female rats): less than 1%
cumulative excreted fraction in bile (% of administered dose) ([5]; female rats): 0.02% ± 0.01
cumulative excreted fraction in feces (% of administered dose) ([5]; female rats): 0.42% ± 0.29
unchanged verticinone excreted from urine and feces ([5]; female rats): 0.6%
cumulative excreted fraction in urine (% of administered dose) ([5]; female rats, urine 24 h): 0.23% ± 0.05
dose excreted as unchanged parent compound ([5]; male rats): less than 4%
cumulative excreted fraction in bile (% of administered dose) ([5]; male rats): 0.31% ± 0.21
cumulative excreted fraction in feces (% of administered dose) ([5]; male rats): 0.92% ± 0.53
unchanged verticinone excreted from urine and feces ([5]; male rats): about 3.4%
cumulative excreted fraction in urine (% of administered dose) ([5]; male rats, urine 36 h): 2.50% ± 0.98
